Assay results taken from patent US10294269B2, “Dipeptidyl ketoamide compounds and their use for the treatment and/or prevention of fat accumulation” (LANDSTEINER GENMED, S.L., priority 2014, dated 2019).

System: 3T3-L1 pre-adipocyte cell line
Experiment: Mouse 3T3-L1 pre-adipocyte cells differentiation assay (Nile Red lipid fluorescence)
Type: cell-based
Details: % of adipogenesis inhibition, compound at 25 μM in differentiation medium (2 days) and insulin medium (2 days), 3T3-L1 cells; for inhibition at 25 µM: Mus musculus, 48 h, read-out: Adipogenesis inhibition score
Experimental: Mouse 3T3-L1 Pre-Adipocyte Cells Differentiation Assay
Cell Culture and Treatment
Mouse (Mus musculus) 3T3-L1 pre-adipocyte cell line was purchased at ATCC.
Induction of adipocyte differentiation was performed according to Choi K C et al “The role of ghrelin and growth hormone secretagogues receptor on rat adipogenesis” Endocrinol 144: 754-759, 2003 with some modifications.
Briefly, 3T3-L1 pre-adipocytes were seeded in 24 well culture plates at a density of 3×10^4 cells/well in growth medium (DMEM containing 4.5 g/L glucose, 1 mM sodium pyruvate, 2 mM L-glutamine, 100 μg/mL streptomycin/penicilline, 25 mM HEPES and 10% calf serum (heat inactivated)). The resulting solution is used as a blank in the measure of fluorescence described below.
Cells were incubated at 37° C., 95% humidity and 10% CO2. Two days after reaching confluence (ninth day) growth medium was changed to differentiation medium (DMEM containing 4.5 g/L glucose, 2 mM L-glutamine, 100 μg/mL streptomycin/penicilline, 25 mM HEPES, 10% FBS (heat inactivated), 1 mM sodium pyruvate, 0.5 mM 3-isobutyl-1-methylxanthine, 0.25 μM dexamethasone, and 5 μg/mL insulin). After 48 h, the medium was replaced by insulin medium (DMEM containing 4.5 g/L glucose, 1 mM sodium pyruvate, 2 mM L-glutamine, 100 μg/mL streptomycin/penicillin, 25 mM HEPES, 10% FBS (inactivated) and 5 μg/mL insulin) for another 48 hours, and then incubated in 10% FBS/DMEM (same as insulin medium without insulin) for 4 days up to their complete differentiation.
The compounds to be tested were added at the 25 μM concentration to the differentiation medium (2 days) and to the insulin medium (2 days).
After incubation, the intracellular stored lipids were quantified by measuring the fluorescence after staining the lipids with the fluorescent dye Nile Red (9-diethylamino-5-benzo[α]phenoxazinone).
To carry out said lipid measurement, cells were lysed in hypotonic buffer (1 mM Tris-HCl pH=7.5) containing 2 μg/ml of Nile Red (9-diethylamino-5-benzo[t]phenoxazinone) for 15 min at 37° C.
Lysed cells were homogenized and TAG content was determined by monitoring Nile Red fluorescence in a laser spectral fluorometer. Excitation 522 nm; Emission 574 nm.
For each compound to be tested the following fluorescence measures were recorded: • FC: Fluorescence of a sample of lysed cells incubated in the presence of the compound in both the differentiation medium and in the insulin medium. • FB: Fluorescence of a blank sample of sample of pre-adipocytes in growth medium. • FNC: Fluorescence of a sample of lysed cells incubated with the differentiation medium and insulin medium not comprising any additional compound.
The inhibition of adipogenesis in the presence of the tested compounds is calculated from the following equation: % of adipogenesis inhibition=100−[100×((FC−FB)/(FNC−FB))]
% of adipogenesis inhibition (reflecting the activity against 3T3-L1 cell differentiation into adipocytes) was determined for each compound, and the effect at the […] has been chosen as the most representative value as to be shown in the structure-activity table.

Molecule | inhibition at 25 µM | Adipogenesis inhibition score
CONC(=O)C(=O)C(Cc1ccccc1)NC(=O)[C@H](CC(C)C)NC(=O)c1ccc2c(c1)OCO2 (stereo partly drawn) [Example 62, Benzo[1,3]dioxole-5-carboxylic acid [(1S)-1-(1-benzyl-2-methoxycarbamoyl-2-oxo-ethylcarbamoyl)-3-methyl-butyl]-amide] | 30 to 80% | 
CC(C)C[C@H](NC(=O)c1cccnc1)C(=O)NC(Cc1ccccc1)C(=O)C(=O)NC(C)(C)C (stereo partly drawn) [Example 21, N-((2S)-1-((4-(tert-butylamino)-3,4-dioxo-1-phenylbutan-2-yl)amino)-4-methyl-1-oxopentan-2-yl)nicotinamide] | 1 to 15% | 
CC(C)C[C@H](NC(=O)c1cnccc1Cl)C(=O)NC(Cc1ccccc1)C(=O)C(=O)NC(C)(C)C (stereo partly drawn) [Example 60, N-[(1S)-1-(1-benzyl-2-tert-butylcarbamoyl-2-oxo-ethylcarbamoyl)-3-methyl-butyl]-4-chloro-nicotinamide] | 30 to 80% | 
CC(C)C[C@H](NC(=O)c1cncnc1)C(=O)NC(Cc1ccccc1)C(=O)C(=O)NC(C)(C)C (stereo partly drawn) [Example 8, N-((2S)-1-((4-(tert-butylamino)-3,4-dioxo-1-phenylbutan-2-yl)amino)-4-methyl-1-oxopentan-2-yl)pyrimidine-5-carboxamide] | 1 to 15% | 
Cc1ccc(C(=O)N[C@@H](CC(C)C)C(=O)NC(Cc2ccccc2)C(=O)C(=O)NC(C)(C)C)cn1 (stereo partly drawn) [Example 25, N-((2S)-1-((4-(tert-butylamino)-3,4-dioxo-1-phenylbutan-2-yl)amino)-4-methyl-1-oxopentan-2-yl)-6-methylnicotinamide] | 30 to 80% | 
CONC(=O)C(=O)C(Cc1ccccc1)NC(=O)[C@H](CC(C)C)NC(=O)c1cccc(OC)c1 (stereo partly drawn) [Example 61, N-[(1S)-1-(1-benzyl-2-methoxycarbamoyl-2-oxo-ethylcarbamoyl)-3-methyl-butyl]-3-methoxy-benzamide] | 30 to 80% | 
CC(C)C[C@H](NC(=O)c1ccc(C(F)(F)F)nc1)C(=O)NC(Cc1ccccc1)C(=O)C(=O)NC(C)(C)C (stereo partly drawn) [Example 32, N-((2S)-1-(4-(tert-butylamino)-3,4-dioxo-1-phenylbutan-2-ylamino)-4-methyl-1-oxopentan-2-yl)-6-(trifluoromethyl)nicotinamide] | 30 to 80% | 
CC(C)C[C@H](NC(=O)c1ccccc1)C(=O)NC(Cc1ccccc1)C(=O)C(=O)NC(C)(C)C (stereo partly drawn) [Example 18, N-((2S)-1-((4-(tert-butylamino)-3,4-dioxo-1-phenylbutan-2-yl)amino)-4-methyl-1-oxopentan-2-yl)benzamide] | 15 to 30% | 
CC(C)C[C@H](NC(=O)c1cnccn1)C(=O)NC(Cc1ccccc1)C(=O)C(=O)NC(C)(C)C (stereo partly drawn) [Example 15, N-((2S)-1-((4-(tert-butylamino)-3,4-dioxo-1-phenylbutan-2-yl)amino)-4-methyl-1-oxopentan-2-yl)pyrazine-2-carboxamide] | 1 to 15% | 
CC(C)C[C@H](NC(=O)c1cnc2ccccc2c1)C(=O)NC(Cc1ccccc1)C(=O)C(=O)NC(C)(C)C (stereo partly drawn) [Example 54, Quinoline-3-carboxylic acid [(1S)-1-(1-benzyl-2-tert-butylcarbamoyl-2-oxo-ethylcarbamoyl)-3-methyl-butyl]-amide] | 30 to 80% | 
CC(C)C[C@H](NC(=O)c1ccccc1)C(=O)NC(Cc1ccccc1)C(=O)C(=O)NCc1ccccc1 (stereo partly drawn) [Example 59, N-[(1S)-1-(1-benzyl-2-benzylcarbamoyl-2-oxo-ethylcarbamoyl)-3-methyl-butyl]-benzamide] | 30 to 80% | 
CC(C)C[C@H](NC(=O)c1ccccc1)C(=O)NC(Cc1ccccc1)C(=O)C(=O)NC1CC1 (stereo partly drawn) [Example 20, N-((2S)-1-((4-(cyclopropylamino)-3,4-dioxo-1-phenylbutan-2-yl)amino)-4-methyl-1-oxopentan-2-yl)benzamide] | 30 to 80% | 
N-[(1S)-1-(1-benzyl-2-tert-butylcarbamoyl-2-oxo-ethylcarbamoyl)-3-methyl-butyl]-benzamide [Example 52] |  | ++ (Inhibition between >15% and 30%)
CC(C)C[C@H](NC(=O)c1ccccc1)C(=O)NC(Cc1ccccc1)C(=O)C(=O)NC1CCCCC1 (stereo partly drawn) [Example 58, N-[(1S)-1-(1-benzyl-2-cyclohexylcarbamoyl-2-oxo-ethylcarbamoyl)-3-methyl-butyl]-benzamide] | 30 to 80% | 
CCNC(=O)C(=O)C(Cc1ccccc1)NC(=O)[C@H](CC(C)C)NC(=O)OC(C)(C)C (stereo partly drawn) [Example 64, tert-butyl (2S)-1-(4-(ethylamino)-3,4-dioxo-1-phenylbutan-2-ylamino)-4-methyl-1-oxopentan-2-ylcarbamate] | 30 to 80% | 
CC(C)C[C@H](NC(=O)c1cccc2cnccc12)C(=O)NC(Cc1ccccc1)C(=O)C(=O)NC(C)(C)C (stereo partly drawn) [Example 11, N-((2S)-1-((4-(tert-butylamino)-3,4-dioxo-1-phenylbutan-2-yl)amino)-4-methyl-1-oxopentan-2-yl)isoquinoline-5-carboxamide] | 30 to 80% | 
CCNC(=O)C(=O)C(Cc1ccccc1)NC(=O)[C@H](CC(C)C)NC(=O)NC(C)(C)C (stereo partly drawn) [Example 65, (2S)-2-(3-tert-butylureido)-N-(4-(ethylamino)-3,4-dioxo-1-phenylbutan-2-yl)-4-methylpentanamide] | 15 to 30% | 
CCNC(=O)C(=O)C(Cc1ccccc1)NC(=O)[C@H](CC(C)C)NC(=O)c1cncnc1 (stereo partly drawn) [Example 6, N-((2S)-1-((4-(ethylamino)-3,4-dioxo-1-phenylbutan-2-yl)amino)-4-methyl-1-oxopentan-2-yl)pyrimidine-5-carboxamide] | 15 to 30% | 
COCCOC(=O)N[C@@H](CC(C)C)C(=O)NC(Cc1ccccc1)C(=O)C(=O)NOC (stereo partly drawn) [Example 67, [(1S)-1-(1-benzyl-2-methoxycarbamoyl-2-oxo-ethylcarbamoyl)-3-methyl-butyl]-carbamic acid 2-methoxy-ethyl ester] | 15 to 30% | 
Cc1ccccc1C(=O)N[C@@H](CC(C)C)C(=O)NC(Cc1ccccc1)C(=O)C(=O)NC(C)(C)C (stereo partly drawn) [Example 56, N-[(1S)-1-(1-benzyl-2-tert-butylcarbamoyl-2-oxo-ethylcarbamoyl)-3-methyl-butyl]-2-methyl-benzamide] | 15 to 30% | 
CC(C)C[C@H](NC(=O)C1CCOCC1)C(=O)NC(Cc1ccccc1)C(=O)C(=O)NC(C)(C)C (stereo partly drawn) [Example 57, Tetrahydro-pyran-4-carboxylic acid [(1S)-1-(1-benzyl-2-tert-butylcarbamoyl-2-oxo-ethylcarbamoyl)-3-methyl-butyl]-amide] | 15 to 30% | 
COc1cccc(C(=O)N[C@@H](CC(C)C)C(=O)NC(Cc2ccccc2)C(=O)C(=O)NC(C)(C)C)c1 (stereo partly drawn) [Example 7, N-((2S)-1-((4-(tert-butylamino)-3,4-dioxo-1-phenylbutan-2-yl)amino)-4-methyl-1-oxopentan-2-yl)-3-methoxybenzamide] | 15 to 30% | 
CCNC(=O)C(=O)C(Cc1ccccc1)NC(=O)[C@H](CC(C)C)NC(=O)c1ccccc1 (stereo partly drawn) [Example 1, N-((2S)-1-((4-(ethylamino)-3,4-dioxo-1-phenylbutan-2-yl)amino)-4-methyl-1-oxopentan-2-yl)benzamide] | 15 to 30% | 
CC(C)C[C@H](NC(=O)c1cccnn1)C(=O)NC(Cc1ccccc1)C(=O)C(=O)NC(C)(C)C (stereo partly drawn) [Example 55, Pyridazine-3-carboxylic acid [(1S)-1-(1-benzyl-2-tert-butylcarbamoyl-2-oxo-ethylcarbamoyl)-3-methyl-butyl]-amide] | 15 to 30% | 
CCNC(=O)C(=O)C(Cc1ccccc1)NC(=O)[C@H](CC(C)C)NC(=O)c1ccccn1 (stereo partly drawn) [Example 4, N-((2S)-1-((4-(ethylamino)-3,4-dioxo-1-phenylbutan-2-yl)amino)-4-methyl-1-oxopentan-2-yl)picolinamide] | 1 to 15% | 
CC(C)C[C@H](NC(=O)c1cncc(F)c1)C(=O)NC(Cc1ccccc1)C(=O)C(=O)NC(C)(C)C (stereo partly drawn) [Example 31, N-((2S)-1-(4-(tert-butylamino)-3,4-dioxo-1-phenylbutan-2-ylamino)-4-methyl-1-oxopentan-2-yl)-5-fluoronicotinamide] | 1 to 15% | 
